Assay results as given in US20250263370A1 (Tay Therapeutics Limited, priority 2022, published 2025).
Where “and” joins values, the source holds several entries; their conditions need not be identical. Equal entries are not always repeated. Entries after “also recorded” stand apart in the source; their conditions may differ.

Tested on: collagen-induced arthritis
Test: Collagen-induced arthritis (CIA) model in rats: body weight, paw volume, clinical scores, clinical observations
Details: CIA rats
[1] = 10 mg/kg twice daily P.O. (group 6), day 21
[2] = 30 mg/kg twice daily P.O. (group 7)
[3] = 30 mg/kg twice daily P.O. (group 7), day 15
[4] = 30 mg/kg twice daily P.O. (group 7), day 19
[5] = 30 mg/kg twice daily P.O. (group 7), day 21

`CNC(=O)c1[nH]c(C(=O)NC2CCC2)cc1O[C@@H](C)c1ccccc1` (stereo in doubt) [Example 101, N^5-cyclobutyl-N^2-methyl-3-(1-phenylethoxy)-1H-pyrrole-2,5-dicarboxamide] was tested, and the “animals with a score of 2 on one hind limb and no score on the other hind limb” value [1] was 1/8, the “animals with scores of 1 or 2 on both hind limbs” value [1] was 2/8 and the “animals with scores of 3 on each hind limb” value [1] was 3/8. The “animals with scores of 4 on one or more hind limbs” value (10 mg/kg twice daily P.O. (group 6), days 19 and 21) was 2/8, the “paw volume increase at plateau relative to day 0” value (10 mg/kg twice daily P.O. (group 6), plateau at day 18) was “approximately 50%” and the “Average animal paw volume percent change” value (10 mg/kg, Day 0, left hind paw (L)) was 0.00%. For the same compound, the “Animal paw volume Day 0 L” value (10 mg/kg, Day 0, left paw, individual animals) was 1.39 mL and 1.26 mL (2×) and 1.29 mL (2×) and 1.31 mL and 1.30 mL and 1.37 mL, the “Average animal paw volume percent change” value (10 mg/kg, Day 0, right hind paw (R)) was 0.00% and the “Animal paw volume Day 0 R” value (10 mg/kg, Day 0, right paw, individual animals) was 1.41 mL and 1.26 mL (2×) and 1.30 mL (3×) and 1.31 mL and 1.37 mL. For the same compound, the “Average animal paw volume percent change” value (10 mg/kg, Day 6, left hind paw (L)) was 1.14%, the “Animal paw volume Day 6 L” value (10 mg/kg, Day 6, left paw, individual animals) was 1.41 mL and 1.23 mL and 1.31 mL and 1.33 mL and 1.34 mL and 1.35 mL and 1.37 mL and 1.26 mL and the “Average animal paw volume percent change” value (10 mg/kg, Day 6, right hind paw (R)) was 0.87%. For the same compound, the “Animal paw volume Day 6 R” value (10 mg/kg, Day 6, right paw, individual animals) was 1.41 mL and 1.24 mL and 1.32 mL and 1.33 mL and 1.34 mL (2×) and 1.36 mL and 1.26 mL, the “Average animal paw volume percent change” value (10 mg/kg, Day 12, left hind paw (L)) was 7.61% and the “Animal paw volume Day 12 L” value (10 mg/kg, Day 12, left paw, individual animals) was 1.52 mL and 1.26 mL and 1.43 mL and 1.63 mL and 1.34 mL and 1.44 mL and 1.39 mL and 1.27 mL. For the same compound, the “Average animal paw volume percent change” value (10 mg/kg, Day 12, right hind paw (R)) was 7.98%, the “Animal paw volume Day 12 R” value (10 mg/kg, Day 12, right paw, individual animals) was 1.44 mL and 1.27 mL and 1.88 mL and 1.33 mL and 1.35 mL and 1.38 mL and 1.39 mL and 1.29 mL and the “Average animal paw volume percent change” value (10 mg/kg, Day 13, left hind paw (L)) was 16.61%. For the same compound, the “Animal paw volume Day 13 L” value (10 mg/kg, Day 13, left paw, individual animals) was 1.71 mL and 1.32 mL and 1.81 mL and 1.83 mL and 1.35 mL and 1.45 mL and 1.44 mL and 1.31 mL, the “Average animal paw volume percent change” value (10 mg/kg, Day 13, right hind paw (R)) was 10.89% and the “Animal paw volume Day 13 R” value (10 mg/kg, Day 13, right paw, individual animals) was 1.54 mL and 1.32 mL and 1.90 mL and 1.37 mL (2×) and 1.41 mL and 1.44 mL and 1.29 mL. For the same compound, the “Average animal paw volume percent change” value (10 mg/kg, Day 14, left hind paw (L)) was 30.15%, the “Animal paw volume Day 14 L” value (10 mg/kg, Day 14, left paw, individual animals) was 2.00 mL and 1.50 mL and 2.07 mL and 2.45 mL and 1.39 mL and 1.45 mL and 1.44 mL and 1.31 mL and the “Average animal paw volume percent change” value (10 mg/kg, Day 14, right hind paw (R)) was 21.45%. For the same compound, the “Animal paw volume Day 14 R” value (10 mg/kg, Day 14, right paw, individual animals) was 1.62 mL and 1.68 mL and 2.23 mL and 1.67 mL and 1.37 mL and 1.43 mL and 1.46 mL and 1.28 mL, the “Average animal paw volume percent change” value (10 mg/kg, Day 15, left hind paw (L)) was 40.41% and the “Animal paw volume Day 15 L” value (10 mg/kg, Day 15, left paw, individual animals) was 2.13 mL and 1.73 mL and 2.33 mL and 2.49 mL and 1.41 mL and 1.60 mL and 1.49 mL and 1.51 mL. The “Average animal paw volume percent change” value (10 mg/kg, Day 15, right hind paw (R)) was 34.05%, the “Animal paw volume Day 15 R” value (10 mg/kg, Day 15, right paw, individual animals) was 1.93 mL and 1.83 mL and 2.53 mL and 1.91 mL and 1.38 mL and 1.45 mL and 1.51 mL and 1.52 mL and the “Average animal paw volume percent change” value (10 mg/kg, Day 18, left hind paw (L)) was 59.21%. For the same compound, the “Animal paw volume Day 18 L” value (10 mg/kg, Day 18, left paw, individual animals) was 2.40 mL and 2.04 mL and 2.54 mL and 2.70 mL and 1.51 mL (2×) and 2.30 mL and 1.64 mL, the “Average animal paw volume percent change” value (10 mg/kg, Day 18, right hind paw (R)) was 54.15% and the “Animal paw volume Day 18 R” value (10 mg/kg, Day 18, right paw, individual animals) was 2.23 mL and 2.08 mL and 2.52 mL and 2.74 mL and 1.59 mL and 1.91 mL and 1.58 mL and 1.51 mL. The “Average animal paw volume percent change” value (10 mg/kg, Day 19, left hind paw (L)) was 58.75%, the “Animal paw volume Day 19 L” value (10 mg/kg, Day 19, left paw, individual animals) was 2.38 mL and 2.04 mL and 2.49 mL and 2.64 mL and 1.48 mL and 2.32 mL and 1.65 mL and 1.60 mL and the “Average animal paw volume percent change” value (10 mg/kg, Day 19, right hind paw (R)) was 54.16%. For the same compound, the “Animal paw volume Day 19 R” value (10 mg/kg, Day 19, right paw, individual animals) was 2.36 mL and 2.05 mL and 2.47 mL and 2.71 mL and 1.58 mL and 1.87 mL and 1.57 mL and 1.56 mL, the “Average animal paw volume percent change” value (10 mg/kg, Day 21, left hind paw (L)) was 60.25% and the “Animal paw volume Day 21 L” value (10 mg/kg, Day 21, left paw, individual animals) was 2.38 mL and 2.03 mL and 2.48 mL and 2.64 mL and 1.48 mL and 2.33 mL and 1.83 mL and 1.60 mL. The “Average animal paw volume percent change” value (10 mg/kg, Day 21, right hind paw (R)) was 59.20%, the “Animal paw volume Day 21 R” value (10 mg/kg, Day 21, right paw, individual animals) was 2.35 mL and 2.04 mL and 2.46 mL and 2.68 mL and 1.58 mL and 2.15 mL and 1.82 mL and 1.62 mL and the “animals that never showed signs of disease” value [2] was “one animal”. The “average clinical score relative to CIA + vehicle (group 2)” value [2] was “significantly decreased (p<0.01) relative to animals in group 2 on days 18, 19 and 21”, the “average overall clinical score at plateau” value [2] was 4 and the “day on which paw volume noticeably increased” value [2] was ~19 days. For the same compound, the “effect on hind paw volume” value [2] was “most effective dose at preventing an increase in paw volume; also recorded: Paw volume increases were delayed; also recorded: proved most effective”, the “paw volume increase at plateau relative to day 0” value [2] was “approximately 35%” and the “paw volume relative to CIA + vehicle (group 2)” value [2] was “significantly reduced relative to group 2 at day 15 (left paw, p<0.05) and days 18, 19, 21 (both paws, p<0.01)”. The “animals exhibiting signs of disease” value (30 mg/kg twice daily P.O. (group 7), day 12) was “One animal”, the animals exhibiting disease [3] was 4/8 and the “animals with a score of 2 on one hind limb” value [3] was 2/8. The animals exhibiting disease (30 mg/kg twice daily P.O. (group 7), day 16) was 5/8, the “animals with scores of 2 or 3 on both hind limbs” value (30 mg/kg twice daily P.O. (group 7), day 18) was 3/8 and the animals exhibiting disease [4] was 7/8. The “animals with a score of 2 or 3 on both hind limbs” value [4] was 4/8, the “animals with a clinical score of 3 on both hind limbs” value [5] was 4/8 and the “animals with a score of 1 on one or both hind limbs” value [5] was 3/8. The “animals with no clinical score” value [5] was 1/8 and the “Average animal paw volume percent change” value (30 mg/kg, Day 0, left hind paw (L)) was 0.00%.
